We go through three compounds from US20060029563A1, “Cutanceous metabolic bio-activator” (Jean-Noel Thorel, priority 2002, published 2006).

In data set [1] the test system is secretion of endothelin-1 by normal human keratinocytes. Put plainly: endothelin-1 secretion by keratinocytes (ELISA), nonirradiated or after UV B irradiation. Type of data set: cell-based. The conditions noted are these: for increase in the basal secretion of endothelin-1 compared with the water control: nonirradiated. The method, then:
The trial is carried out on an in vitro culture of normal human keratinocytes seeded at a density of 10^5 cells/well in 6-well plates.
The keratinocytes, seeded in 6-well plates at a density of 10^5 cells/well, are cultured in standard medium (Epilife Sigma) for 48 h. Before irradiation, the culture medium is removed, the cells are rinsed with PBS buffer, and 1 ml thereof is left in contact with the cells for the irradiation. The keratinocytes are subjected to a UV B irradiation (312 nm) of 20 mJ/cm^2. An identical nonirradiated condition is realized in parallel.
After irradiation (and on the nonirradiated parallel), the PBS is removed and the cells are placed under the various conditions studied: • control of water in the culture medium, […]
Each condition is realized in triplicate.
After contact for 24 h or 48 h after irradiation, the conditioned culture supernatants are recovered. The amount of endothelin-1 secreted by the keratinocytes is measured on 100 μl of supernatant by means of an ELISA technique (R&D Systems, Abingdon, UK). The endothelin-1 levels are calculated by means of the standard curve prepared with synthesized human endothelin-1. The results are expressed in pg of endothelin-1 standardized with respect to the protein concentration (pg ET-1/mg of proteins).
Background: ELISA stands for enzyme-linked immunosorbent assay.

A further data set relates to HaCaT cells. The experiment in a line: growth of HaCaT cells, WST-1 conversion method. Type of data set: cell-based, human. On the procedure: The objective of this trial is to evaluate the effect of the combination ATP+peptides, added to a culture medium, on the growth of an immortalized line of human […], HaCaT cells.
The study is carried out on a culture prepared in the standard culture medium for HaCaT cells, DMEM (Sigma) in the presence of fetal calf serum (SVF) at 2 or 10%.
The HaCaT cells are seeded at low density in a 96-well plate in the standard medium (DMEM+10% SVF) and grow for 24 h after seeding in this medium.
On the 2nd day, the cells are placed under the various conditions studied.
The test concentrations in terms of ATP, β-alanyl-L- histidine (Carnosine) and L-citrullyl-L-arginine (exsy- algine) are determined subsequent to preliminary cytotoxicity studies.
The following conditions are prepared: • A control condition: culture medium alone+SVF • A condition consisting of β-alanyl-L-histidine alone at 0.5%. • A condition consisting of L-citrullyl-L-arginine are known at 0.5%. • A condition consisting of ATP alone at 1 μg/ml. • A condition consisting of ATP (1 μg/ml)+β-alanyl-L-histidine (0.5%). • A condition consisting of ATP (1 μg/ml)+L-citrullyl-L-arginine (0.5%) • A condition consisting of ATP (1 μg/ml)+β-alanyl-L-histidine (0.5%)+L- citrullyl-L-arginine (0.5%).
These various conditions are prepared both in the DMEM containing 2% SVF and the DMEM containing 10% SVF.
Each condition is prepared in triplicate. The media are not renewed in the course of the experiment.
The cell density is evaluated 24 h after seeding of the cells, before the cells are brought into contact with the various study conditions (=T0), and the growth of the HaCaT cells is then evaluated on the 2nd, 5th and 7th days of culture by means of the WST-1 conversion method (reading at 450 nm).
The cell growth is objectified by measuring the cell viability at various times of the experiment. The results obtained give the percentage cell viability calculated with respect to the initial cell density at T0, for which it is estimated that the cell density is equal to 100%. The effects of the various products on cell growth are analyzed at the various times of the experiment, relative to the nontreated control at the same time of the experiment.

Another data set deals with normal human melanocytes. The experiment in a line: comet assay on UVA-irradiated normal human melanocytes. Type of data set: cell-based. The conditions noted are these: 4 mM each. On the procedure: Cultures of normal human melanocytes (MHNs) are prepared from fore skins of infants and of newborns suffering from phimosis. The melanocytes obtained from skin fragments are placed in MCDB 153 medium (Sigma St Louis, Mo., USA) supplemented with 30 μg/ml of bovine pituitary extract (BPE) (Life Technologies, Paisley, England), 2% of fetal calf serum (SVF) (Dominique Dutscher, Brumath, France), 16 nM of phorbol-12-myristate-13-acetate (Sigma), 5 μg/ml of insulin and 1.1 μM of hydrocortisone (Sigma). The cultures are maintained in an incubator at 37° C. and-in-an atmosphere containing 5% CO2. Pure cultures of melanocytes are obtained after 2 to 3 weeks.
All the compositions tested are solubilized in DMSO at the maximum concentrations permitted. Preliminary trials are carried out in order to determine the subtoxic concentrations on the keratinocytes. The final concentration of DMSO is always less than 2%.
The melanocytes are brought into contact with the product for 30 min at 37° C., and are then irradiated with UVA radiation. The UVA irradiations are generated by means of a Bio-Sun UV-irradiator (Vilbert Lourmat, Marne la Vallée). This device is equipped with monochromatic lamps that emit a wavelength of 312 nm and/or 365 nm. The lamps deliver a calculated energy by means of an RMW-365/312 radiometer. The energies delivered are 0.8 J/cm^2 for the UVA range. The “comet” assay is carried out immediately after exposure. Two types of controls are included in these experiments: • negative controls: melanocytes that are not treated but […]; melanocytes treated for 30 min with the composition tested, but not irradiated. • Positive control: melanocytes that are not treated but are irradiated.
After treatment with a typsin/EDTA mixture (0.05%/0.02%) for 2 to 3 minutes, the cultures are 15 recovered by centrifugation and placed in PBS buffer without Ca++ and without Mg++ (Sigma). Following a second centrifugation, the cells (4.5-5.0×10^4 cells) are suspended in 0.5% low melting point (LMP) agarose (Sigma). The mixture is directly deposited onto microscope slides coated with a prelayer of agarose (1.6%) dried overnight at ambient temperature and freshly precoated with a second layer of agarose (0.8%).
The protocol for the comet assay is that of De Meo et al., incorporating the “dry slide” technique. After the irradiations, the slides are placed in a lysis bath (2.5 M NaCl, 100 mM Na2EDTA, 10 mM Tris-HCl, pH 10, 1% of sodium sarcosinate, 1% of triton X-100 and 10% of DMSO). The cell lysis is performed at 4° C. for 60 minutes, followed by denaturation of the DNA at ambient temperature for 20 min in a strongly alkaline solution (1 mM Na2EDTA and 300 mM NaOH, pH>13.0). After electrophoresis (25 V, 300 mA) for 20 min., the slides are neutralized with the Tris-HCl buffer (0.4 M; pH 7.4) and dehydrated in absolute ethanol or methanol.
The slides are stained with ethidium bromide solution (75 μl of 2 μg/ml) and observed using a BH2-RFL fluorescence microscope (Olympus, Japan) equipped with a 20BG-W dichroic filter (excitation: 515-560 nm; emission: 590 nm) and with an Apo D-Plan 20× objective. The image analysis is carried out with a high sensitivity monochrome CCD camera (Cohu 4912-5000) coupled to a Matrox IP-8 acquisition board. The entire assembly is controlled by means of the Fenestra Komet software (Kinetic Imaging, Liverpool, UK, version 3.1).
A total of 100 cells per sample (50 cells/slide) is analyzed. The parameter used is “tail DNA”, which is defined as the percentage of DNA in the tail of the “comet”. For each series of experiments, a negative control (nonirradiated cells) and a positive control (irradiated cells without composition tested) are included.
Nonlinear regressions based on a χ^2 function are calculated directly from the TM (tail moment) distribution frequencies for each sample. Specifically, Bauer et al. have recently shown that these distributions follow a χ^2 function. […]

Data set [2] is described as follows: prior cell viability test on normal human keratinocytes. The format is cell-based. As to conditions: after 48 h of contact, highest 2 concentrations, 0.0001% and 0.01%. On the procedure:
In order to determine the concentrations applicable in the context of the trial, a prior cell viability test is carried out on normal human keratinocytes.
L-citrullyl-L-arginine is dissolved in water and the final concentration is fixed at 0.1%.
6 dilutions of L-citrullyl-L-arginine from 10^−4% to 10^−2% are brought into contact with the cells for 24 h and 48 h. A “water” condition is realized as a control.
For the trial, the L-citrullyl-L-arginine will be tested at the highest 2 concentrations that allow the cell viability to be maintained at a level greater than 80%, after 48 h of contact, i.e. 0.0001% and 0.01%.

[3] abbreviates: NI: nonirradiated melanocytes pretreated 30 min.
The mark [4] stands for this setting: melanocytes irradiated with UVA (0.8 J/cm^2), pretreated 30 min.

Where a SMILES comes first, the peptide text is derived from it. [ ]: non-standard residue; d: D form. Cit = NC(=O)NCCC[C@H](N)C(=O)O

`Nc1ncnc2c1ncn2[C@@H]1O[C@H](COP(=O)(O)OP(=O)(O)OP(=O)(O)O)[C@@H](O)[C@H]1O` [ATP, adenosine triphosphate]: the “effect on endothelin-1 synthesis (in words)” value in data set [1] (ATP alone) is reported as “do not show any effect”. For the same compound, the “change in cell viability” value in the data set on HaCaT cells (ATP alone, after 2 to 5 days of contact) was −5 to −10%. The “effect on cell viability (in words)” value in the data set on HaCaT cells (after 2 days of culture, ATP 1 μg/ml) was “substantially decreases cell viability”. For the same compound, the “effect on cell viability / growth (in words)” value in the data set on HaCaT cells (after 5 days of culture) is on record as “substantially decreases cell viability”. For the same compound, the “OTM-χ^2” value with normal human melanocytes (setting [3]) is on record as 2.08 ± 0.02. Besides, in the data set with normal human melanocytes (setting [4]), the “Degree of protection (%)” value worked out at 14.6% and the “OTM-χ^2” value was determined as 6.31 ± 0.38.
On to `N=C(N)NCCC[C@H](NC(=O)[C@@H](N)CCCNC(N)=O)C(=O)O` [L-citrullyl-L-arginine] (H-[Cit]-Arg-OH), for which the viability at 48 h in data set [2] was greater than 80%. For the same compound, the “effect on the secretion of endothelin-1 (in words)” value in data set [1] (0.01%, conclusion) is “considerable activating effect”. Also, the “increase in secretion of endothelin-1 compared with the irradiated water control” value in data set [1] (UV B 20 mJ/cm^2, 24 h, 0.0001%) is reported as 6%; in data set [1] (UV B 20 mJ/cm^2, 24 h, 0.001%) it was 28%; in data set [1] (UV B 20 mJ/cm^2, 48 h, 0.0001%), 4%; in data set [1] (UV B 20 mJ/cm^2, 48 h, 0.01%), 63%. Besides, the “increase in the basal secretion of endothelin-1 compared with the water control” value amounted to 20% in data set [1] (24 h, 0.0001%); 70% in data set [1] (24 h, 0.01%); 26% in data set [1] (48 h, 0.0001%); 82% in data set [1] (48 h, 0.01%). Also, the “cell growth relative to the nontreated control” value with HaCaT cells (after 2 days of culture, 0.1% and 0.5%) is given as “+5%”. Also, the “effect on cell viability / growth (in words)” value in the data set on HaCaT cells (after 5 days of culture) is reported as “does not stimulate cell growth”. In addition, the “OTM-χ^2” value was 2.06 ± 0.02 in the data set with normal human melanocytes (setting [3]) and 2.22 ± 0.20 in the data set with normal human melanocytes (setting [4]). Besides, in the data set with normal human melanocytes (setting [4]), the “Degree of protection (%)” value was 67.7%.
Turning to `NCCC(=O)N[C@@H](Cc1c[nH]cn1)C(=O)O` [β-alanyl-L-histidine], the “effect on cell growth (in words)” value with HaCaT cells (after 2 days of culture, 0.1%) was “no effect on growth”. In addition, the “cell growth relative to the nontreated control” value in the data set with HaCaT cells (after 2 days of culture, 0.5%, 2% SVF) is recorded as “+22%”; in the data set with HaCaT cells (after 5 days of culture, 0.5%), “+12%”. For the same compound, the “effect on cell viability / growth (in words), conclusion” value with HaCaT cells (conclusion of the trial, at the concentrations tested) was “exerts a stimulatory effect on cell growth”.

Broadly, the viability is a per cent measure of how many cells are alive, often set against a control. A low value points to a greater loss of cells.
